Test results from patent US20050054103A1, “Expansion of renewable stem cell populations using modulators of PI 3-kinase” (priority 2003, published 2005).

What was measured:
CD34+ cells [1] = experiment: Ex-vivo expansion of CD34+ cell enriched cultures with RAR antagonist, cell counts and FACS surface antigen analysis; type: cell-based, human; conditions: for No. of cells (× 10^4): 2 weeks after seeding; for No. of CD34+ cells: RAR antagonist 10^−5 M for one week only
Description: Human blood cells were obtained from umbilical cord blood from female patients following full-term, normal delivery (informed consent was obtained). Samples were collected and processed within 12 hours postpartum. Blood was mixed with 3% Gelatin (Sigma, St. Louis, Mo.), sedimented for 30 minutes to remove most red blood cells. […] The mononuclear cell fraction in the interface layer was collected, washed three times and resuspended in phosphate-buffered saline (PBS) solution (Biological Industries) containing 0.5% bovine serum albumin (BSA, Fraction V; Sigma).
To purify CD34^+ mononuclear cells, the fraction was subjected to two cycles of immuno-magnetic separation using the MiniMACS® or Clinimax® CD34 Progenitor Cell Isolation Kit (Miltenyi Biotec, Auburn, Calif.) as per manufacturer's recommendations.
CD34^+ expressing purified cells above were cultured in 24-well Costar Cell Culture Clusters (Coming Inc., Corning, N.Y.) or culture bags (American Fluoroseal Corp), at a concentration of 10^4 cells/ml in alpha medium (Biological Industries, Beit Haemek, Israel) supplemented with 10% fetal bovine serum (FBS, Biological Industries). The following human recombinant cytokines were added: Thrombopoietin (TPO), interleukin-6 (IL-6), FLT-3 ligand and stem cell factor (SCF), all at final concentrations of 50 ng/ml each, though occasionally IL-3, at a concentration of 20 ng/ml, was added either together or instead of SCF. For non-hematopoietic cell differentiation, FGF, EGF, NGF, VEGF, LIF or Hepatocyte growth factor (HGF) were used to supplement the growth medium, either alone or in various combinations. All cytokines used were purchased from Perpo Tech, Inc. (Rocky Hill, N.J.). The cultures were incubated at 37° C., 5% CO2, in a humidified atmosphere.
At weekly intervals, cell cultures were toped and semi-depopulated and were supplemented with fresh medium, serum and cytokines or supplemented with fresh growth medium, alone. At predetermined time points, cells were harvested, stained with trypan blue, counted, and cell morphology was determined via the use of cytospin (Shandon, UK)-prepared smears stained with May-Grunwald/Giemsa solutions.
CD34^+ purified and whole MNC cultures were prepared and maintained as described above. […] The antagonist was added for a predetermined, limited period, for up to three weeks or continuously during the entire culture period.
Cells were harvested, washed with a PBS solution containing 1% bovine sera albumin (BSA) and 0.1% sodium azide (Sigma), and stained at 4° C. for 60 minutes with fluorescein isothiocyanate or phycoerythrin-conjugated antibodies (all from Immunoquality Products, the Netherlands). The cells were then washed with the same buffer and analyzed by FACS caliber or Facstarplus flow cytometers. Cells were passed at a rate of 1000 cells/second, using saline as the sheath fluid. A 488 nm argon laser beam served as the light source for excitation. Emission of ten thousand cells was measured using logarithmic amplification, and analyzed using CellQuest software. Negative control staining of cells was accomplished with mouse IgG-PE (Dako A/S Glostrup, Denmark) and mouse IgG-FITC (BD Biosciences, Erembodegem, Belgium).
CD34 surface expression on short and long-term cultures initiated either with purified CD34^+ cells or the entire MNC fraction was determined as follows: CD34^+ cells were positively reselected (Miltenyi kit) and counted. Purity was confirmed by subsequent FACS and cell morphology analysis.
Reselected CD34^+ cell subsets were stained for the following combination of antigens: CD34PE/CD38FITC and CD34PE/38, 33, 14, 15, 3, 4, 61, 19 (Lin) FITC. The fraction positive for CD34 and negative for CD38 was defined as CD34^+CD38^−. The fraction positive for CD34 and negative for LIN was defined as CD34^+Lin^− cell fraction.
FACS analysis results are given as percentage values of cells. Absolute numbers of subsets are calculated from the absolute number of CD34^+ cells.

CD34+ cells [2] = experiment: Ex vivo expansion of CD34+ cell enriched cultures with RXR, RAR and RAR+RXR antagonists (CFU, CD34+ counts, FACS); type: cell-based, human; conditions: 10^−7 M, with TPO, FLT3, IL-6 and IL-3; 3 and 5 weeks
Description: Cultures were prepared and maintained as described above.
, the percentage of cells bearing the CD34^+ marker (considered to be mostly committed progenitor cells), as well as the percentage of cells bearing the markers CD34^+/CD38^− and CD34^+Lin^− […]

HL-60 cells = experiment: Copper determination in chelator treated cells (atomic absorption); type: cell-based, human
Description: Copper Determination: Cells were harvested by centrifugation at 1000×g for 5 minutes. The cell pellet was washed three times by re-suspending the cells in PBS (Ca^++ and Mg^++ free) and centrifugation at 1000×g. An aliquot containing 2×10^6 cells was then transferred into a metal-free Eppendorf tube and the cells were recovered by centrifugation at 1000×g. The cell pellet was re-suspended in 0.03 M ultra-pure nitric acid to give a concentration of 1×10^7 cells/ml. The cells were homogenized with a high shear mixer (polytron, Kinematica, Switzerland) for 1 minutes to disrupt the cell and release intracellular copper content. Cell samples were vortexed before transferring to a vial autosampler and analyzed in duplicate by a Perkin Elmer graphite furnace atomic absorption spectrophotometer at a wavelength of 324.7 nm. The samples were analyzed against copper standard solution prepared from a commercial stock solution that was diluted with 0.03 M ultra pure nitric acid.
FIG. 44 provides the chemical structure of the various chelators employed in these experiments.

Cord blood-derived cells = experiment: Storage and separation of cord blood cells in the presence of TEPA, then long-term culture; type: cell-based; conditions: cells stored 24 hours at 4° C. and separated with 10 μM TEPA
Description: Cord blood-derived cells were collected and stored (unseparated) for 24 hours, at 4° C., either in the presence or absence of 10 μM TEPA. CD34^+ cells were then separated using either 10 μM TEPA-PBS buffer or TEPA free PBS buffer, respectively. Then, cells were grown in long-term cultures in the presence of 10 μM TEPA.

[3] = RAR antagonist 10^−5 M, 2 weeks
[4] = RAR antagonist 10^−6 M, 2 weeks
[5] = reselected CD34+ cells after two weeks in culture

SMILES: CCc1ccc(C2=CC(C)(C)Sc3ccc(C#Cc4ccc(C(=O)O)cc4)cc32)cc1 [AGN 194310]
- cell proliferation enabled until (post initial seeding) (CD34+ cells [1]; AGN194310 10^−7 M): ≤ 11 weeks
- expression of the CD38 antigen (CD34+ cells [1]; FACS, 2 weeks): completely abolished
- No. of cells (× 10^4) (CD34+ cells [1]; RAR antagonist 10^−5 M + 4 cytokines): 42 × 10^4
- No. of CD34+ cells (CD34+ cells [1]; week 13): 10322
- No. of CD34+ cells (CD34+ cells [1]; week 20): 0
- % 34^+/38^−cells (CD34+ cells [1]; [3]): 17.14%
- % 34^+/Lin^−cells (CD34+ cells [1]; [3]): 15.18%
- % 34^+cells (CD34+ cells [1]; [3]): 18.94%
- No. of cells (× 10^4) (CD34+ cells [1]; RAR antagonist 10^−6 M + 4 cytokines): 52 × 10^4
- % 34^+/38^−cells (CD34+ cells [1]; [4]): 17.16%
- % 34^+/Lin^−cells (CD34+ cells [1]; [4]): 11.91%
- % 34^+cells (CD34+ cells [1]; [4]): 19.59%
- increase in CD34+ expression between week three to eleven (CD34+ cells [1]; RAR antagonist first three weeks only, then eight weeks without): 92 fold
- CD34^+Lin^− expansion (CD34+ cells [1]; after two weeks in culture, CD34+ re-selected fraction): 530 fold
- increase in CD34^+CD38^− surface expression (CD34+ cells [1]; [5]): 1000 fold
- increase in CD34^+Lin^− surface expression (CD34+ cells [1]; [5]): 500 fold
- expansion of CD34+ compartment since the initiation of the cultures (CD34+ cells [1]; week 11, RAR antagonist first three weeks only): 1621 fold
- increase in CD34^+Lin^− expression (CD34+ cells [1]; week eleven, 9 weeks after termination of antagonist treatment): 16,700 fold
- activity on ex vivo expansion of stem/progenitor cells (CFU, CD34+, CD34+/38−, CD34+/Lin−) (CD34+ cells [2]): moderate activity

SMILES: NCCNCCNCCNCCN [TEPA, tetraethylenepentamine]
- Average Intracellular ppb Cu (HL-60 cells; 20 μM chelator): 31.5 ppb
- Average Intracellular ppb Cu (HL-60 cells; 100 μM chelator): 24.1 ppb
- Average Intracellular ppb Cu (HL-60 cells; 500 μM chelator): 17.1 ppb
- activity at 20 µM (HL-60 cells; Homo sapiens, HL-60, 20 μM chelator, read-out: Average Intracellular Cu (% of control)): 64%
- activity at 100 µM (HL-60 cells; Homo sapiens, HL-60, 100 μM chelator, read-out: Average Intracellular Cu (% of control)): 49%
- activity at 500 µM (HL-60 cells; Homo sapiens, HL-60, 500 μM chelator, read-out: Average Intracellular Cu (% of control)): 35%
- duration of expansion of long-term cultures (Cord blood-derived cells): 8 weeks
